This passage reports remaining activity results from PMC8286840, “Identifying SARS-CoV-2 antiviral compounds by screening for small molecule inhibitors of Nsp3 papain-like protease” (Biochemical Journal, 2021).

Each structure is given as a SMILES string. Where a name gives a salt, the structure may show the parent alone. Read-outs that look alike come from different tables or passages of the source.

In assay [1] the target is T1, SARS-CoV-2 PLpro (nsp3 1564–1878) (Severe acute respiratory syndrome coronavirus 2, UniProt P0DTD1). Briefly: biochemical. More on the design: FRET-quenched peptide (Pro3) cleavage by PLpro, 10 min pre-incubation, slope over 20 min, normalised to no-compound control. Conditions: high concentration screen, read-out: % of control remaining.
In assay [2] the target is T1, SARS-CoV-2 PLpro (nsp3 1564–1878). Description: biochemical. More on the design: FRET-quenched peptide (Pro3) cleavage by PLpro, 10 min pre-incubation, slope over 20 min, normalised to no-compound control. Conditions: low concentration screen, read-out: % of control remaining.

Consider `N=C(N)NC(=O)c1nc(Cl)c(N)nc1N` [Amiloride HCl dihydrate], for which the remaining activity at 3.75 µM in assay [1] (Well no.=5290) came out at 100%. Also, the remaining activity at 1.25 µM in assay [2] (Well no.=5290) amounted to 101%.
With `N=C(N)NC(=O)c1nc(Cl)c(N)nc1N` [Amiloride hydrochloride], the remaining activity at 3.75 µM in assay [1] (Well no.=148) is 94.6%. The remaining activity at 1.25 µM in assay [2] (Well no.=148) came to 96.9%.
In the case of `N=C(N)NC(=O)c1nc(Cl)c(N)nc1N` [Amiloride], in assay [1] (Well no.=1709), the remaining activity at 3.75 µM was 99%. The remaining activity at 1.25 µM in assay [2] (Well no.=1709) was 102%.
Consider `CN1[C@@H]2CC[C@H]1C[C@@H](OC(c1ccccc1)c1ccccc1N)C2` (stereo partly shown) [Aminobenztropine], for which the remaining activity at 3.75 µM in assay [1] (Well no.=206) came out at 98.3%. For the same compound, in assay [2] (Well no.=206), the remaining activity at 1.25 µM is 97.2%.
For the compound `NN=C(N)N` [Aminoguanidine hemisulfate], the remaining activity at 3.75 µM in assay [1] (Well no.=213) amounted to 96.8%. Besides, the remaining activity at 1.25 µM in assay [2] (Well no.=213) amounted to 95.8%.
For `N=C(N)NN` [Aminoguanidine hydrochloride], the remaining activity at 3.75 µM in assay [1] (Well no.=104) is 94.6%. The remaining activity at 1.25 µM in assay [2] (Well no.=104) came to 93%.
Regarding `Cn1c(=O)c2[nH]cnc2n(C)c1=O` [Aminophylline], the remaining activity at 3.75 µM in assay [1] (Well no.=1542) turned out to be 103%. Also, in assay [2] (Well no.=1542), the remaining activity at 1.25 µM was 101%.
Turning to `Nc1nc(N)c2nc(CNc3ccc(C(=O)N[C@@H](CCC(=O)O)C(=O)O)cc3)cnc2n1` [Aminopterin], the remaining activity at 3.75 µM in assay [1] (Well no.=153) was found to be 104%. Also, the remaining activity at 1.25 µM in assay [2] (Well no.=153) turned out to be 101%.
Turning to `CC(C)[C@H](CO)Nc1nc(Nc2cc(N)cc(Cl)c2)c2ncn(C(C)C)c2n1` [Aminopurvalanol A - (2R)-2-[[6-[(3-Amino-5-chlorophenyl)amino]-9-(1-methylethyl)-9H-purin-2-yl]amino]-3-methyl-1-butanol], in assay [1] (Well no.=2484), the remaining activity at 3.75 µM stood at 108%. The remaining activity at 1.25 µM in assay [2] (Well no.=2484) is 101%.
With `CC(C)[C@H](CO)Nc1nc(Nc2cc(N)cc(Cl)c2)c2ncn(C(C)C)c2n1` [Aminopurvalanol A], in assay [1] (Well no.=2322), the remaining activity at 3.75 µM was determined as 97.4%. Besides, the remaining activity at 1.25 µM in assay [2] (Well no.=2322) is 97.1%.
Regarding `CCCCc1oc2ccccc2c1C(=O)c1cc(I)c(OCCN(CC)CC)c(I)c1` [Amiodarone hydrochloride], in assay [1] (Well no.=198), the remaining activity at 3.75 µM came out at 98.7%. Moreover, in assay [2] (Well no.=198), the remaining activity at 1.25 µM was determined as 97%.
Turning to `CCCCc1oc2ccccc2c1C(=O)c1cc(I)c(OCCN(CC)CC)c(I)c1` [Amiodarone.HCl], the remaining activity at 3.75 µM in assay [1] (Well no.=1591) was 103%. For the same compound, the remaining activity at 1.25 µM in assay [2] (Well no.=1591) came out at 104%.
With `CN(C)CCCO[C@@H]1[C@H]2OC(C)(C)O[C@H]2O[C@@H]1[C@H](O)CO` [Amiprilose hydrochloride], in assay [1] (Well no.=207), the remaining activity at 3.75 µM was 103%. The remaining activity at 1.25 µM in assay [2] (Well no.=207) is 101%.
As for `CCN1CCCC1CNC(=O)c1cc(S(=O)(=O)CC)c(N)cc1OC` (stereo not shown) [Amisulpride], the remaining activity at 3.75 µM came to 97.7% in assay [1] (Well no.=2275) and 107% in assay [1] (Well no.=8149). Also, the results for the remaining activity at 1.25 µM in assay [2] (Well no.=2275) and in assay [2] (Well no.=8149) were 93.3% and 107%, respectively.
Consider `CN(C)CCC=C1c2ccccc2CCc2ccccc21` [Amitriptyline hydrochloride], for which, in assay [1] (Well no.=150), the remaining activity at 3.75 µM turned out to be 98.5%. Moreover, the remaining activity at 1.25 µM in assay [2] (Well no.=150) came to 103%.
In the case of `CN(C)CCC=C1c2ccccc2CCc2ccccc21` [Amitriptyline.HCl], the remaining activity at 3.75 µM in assay [1] (Well no.=2122) was 104%. Moreover, the remaining activity at 1.25 µM in assay [2] (Well no.=2122) is 102%.
As for `CCOC(=O)C1=C(COCCN)NC(C)=C(C(=O)OC)C1c1ccccc1Cl` (stereo not shown) [Amlodipine], the remaining activity at 3.75 µM in assay [1] (Well no.=1711) came to 99%. Besides, the remaining activity at 1.25 µM in assay [2] (Well no.=1711) was found to be 99.1%.
As for `CC1(C)[C@@H](O[C@H]2O[C@H](C(=O)O)[C@@H](O)[C@H](O)[C@H]2O[C@@H]2O[C@H](C(=O)O)[C@@H](O)[C@H](O)[C@H]2O)CC[C@]2(C)[C@H]3C(=O)C=C4[C@@H]5C[C@@](C)(C(=O)O)CC[C@]5(C)CC[C@@]4(C)[C@]3(C)CC[C@@H]12` [Ammonium Glycyrrhizinate], the remaining activity at 3.75 µM in assay [1] (Well no.=8386) stood at 99%. Also, the remaining activity at 1.25 µM in assay [2] (Well no.=8386) came to 97.7%.
On to `S=C(S)N1CCCC1` [Ammonium pyrrolidinedithiocarbamate], for which, in assay [1] (Well no.=1495), the remaining activity at 3.75 µM was found to be 97.9%. Further, in assay [2] (Well no.=1495), the remaining activity at 1.25 µM came out at 102%.
Consider `CCN(CC)Cc1cc(Nc2ccnc3cc(Cl)ccc23)ccc1O` [Amodiaquine dihydrochloride dihydrate], for which the remaining activity at 3.75 µM in assay [1] (Well no.=8396) was found to be 106%. Further, in assay [2] (Well no.=8396), the remaining activity at 1.25 µM turned out to be 97.5%.
With `CN(C)CCN1C(=O)c2cccc3cc(N)cc(c23)C1=O` [Amonafide], the remaining activity at 3.75 µM in assay [1] (Well no.=5195) was 96.7%. In addition, the remaining activity at 1.25 µM in assay [2] (Well no.=5195) was found to be 96.9%.
As to `CCC(C)(C)c1ccc(CC(C)CN2C[C@@H](C)O[C@@H](C)C2)cc1` (stereo partly shown) [Amorolfine HCl], in assay [1] (Well no.=5337), the remaining activity at 3.75 µM came out at 98.1%. The remaining activity at 1.25 µM in assay [2] (Well no.=5337) is 98.1%.
On to `CCC(C)(C)c1ccc(CC(C)CN2C[C@@H](C)O[C@@H](C)C2)cc1` (stereo partly shown) [Amorolfine], for which the remaining activity at 3.75 µM in assay [1] (Well no.=1748) stood at 101%. Further, the remaining activity at 1.25 µM in assay [2] (Well no.=1748) was 99%.
Take `Clc1ccc2c(c1)C(N1CCNCC1)=Nc1ccccc1O2` [Amoxapine]: the remaining activity at 3.75 µM is 97.1% in assay [1] (Well no.=158) and 103% in assay [1] (Well no.=1690). Moreover, the values for the remaining activity at 1.25 µM in assay [2] (Well no.=158) and in assay [2] (Well no.=1690) were 97.7% and 102%, respectively.
Take `CC1(C)S[C@@H]2[C@H](NC(=O)[C@H](N)c3ccc(O)cc3)C(=O)N2[C@H]1C(=O)O` [Amoxicillin (sodium)]: the remaining activity at 3.75 µM in assay [1] (Well no.=8274) came out at 89.9%. Further, the remaining activity at 1.25 µM in assay [2] (Well no.=8274) came to 91.5%.
Consider `CC1(C)S[C@@H]2[C@H](NC(=O)[C@H](N)c3ccc(O)cc3)C(=O)N2[C@H]1C(=O)O` [Amoxicillin (trihydrate)], for which the remaining activity at 3.75 µM in assay [1] (Well no.=8222) was 96.8%. The remaining activity at 1.25 µM in assay [2] (Well no.=8222) stood at 99.5%.
Regarding `CC1(C)S[C@@H]2[C@H](NC(=O)[C@H](N)c3ccc(O)cc3)C(=O)N2[C@H]1C(=O)O` [Amoxicillin], the remaining activity at 3.75 µM in assay [1] (Well no.=2000) worked out at 100%; in assay [1] (Well no.=7654) it was 97.6%. The remaining activity at 1.25 µM in assay [2] (Well no.=2000) is 98.8%; in assay [2] (Well no.=7654), 97%.
For `CCNC(=O)N1CCN(CCCC(c2ccc(F)cc2)c2ccc(F)cc2)CC1` [Amperozide hydrochloride], the remaining activity at 3.75 µM in assay [1] (Well no.=165) came to 96.4%. In assay [2] (Well no.=165), the remaining activity at 1.25 µM came out at 92.6%.
Consider `C[C@@H]1[C@H](O)[C@@H](C)/C=C/C=C/C=C/C=C/C=C/C=C/C=C/[C@H](O[C@@H]2O[C@H](C)[C@@H](O)[C@H](N)[C@@H]2O)C[C@@H]2O[C@](O)(C[C@@H](O)C[C@@H](O)[C@H](O)CC[C@@H](O)C[C@@H](O)CC(=O)O[C@H]1C)C[C@H](O)[C@H]2C(=O)O` [Amphotericin B], for which the remaining activity at 3.75 µM in assay [1] (Well no.=3470) was determined as 98.9%. Also, in assay [2] (Well no.=3470), the remaining activity at 1.25 µM is 101%.
